# Laboratory results: US11559590B2, “Granzyme B directed imaging and therapy” (The General Hospital Corporation, priority 2016, dated 2023)
# Like-named read-outs stand apart in the source and are kept apart here. Non-standard residues stand in square brackets, D forms with d. Residues, ends and D or L forms follow the SMILES beside them. Primed or numbered codes have the meaning given here. No end group written: not given here. *: point of attachment. X1 = O=C(O)CN1CCN(CC(=O)O)CC(Cc2ccc(NC(=S)*)cc2)N(CC(=O)O)CC1; PEG27′ = polyethylene glycol linker of 27 —(OCH2CH2)— units; Biotin = O=C1N[C@H]2[C@H](CS[C@H]2CCCCC(=O)*)N1; NOTA = O=C(O)CN1CCN(CC(=O)O)CCN(CC(=O)*)CC1; βAla = NCCC(=O)O
# B1: Biotin-beta-Ala-Gly-Gly-Gly-Ile-Glu-Pro-Asp-CHO (peptide)
# peptide: Biotin-[βAla]GGGIEPD-aldehyde
# SMILES: CC[C@H](C)[C@H](NC(=O)CNC(=O)CNC(=O)CNC(=O)CCNC(=O)CCCC[C@@H]1SC[C@@H]2NC(=O)N[C@@H]21)C(=O)N[C@@H](CCC(=O)O)C(=O)N1CCC[C@H]1C(=O)N[C@H](C=O)CC(=O)O
# notes: also called hGZP; biotinylated human granzyme B peptide
# What was measured:
# tumor = conditions: mouse, in vivo
# Text: Both peptides were designed to test the effects of additional groups on the pharmacokinetics and tumor to background ratios in mice.
# human granzyme B [1] = target: T1, human granzyme B (Homo sapiens, UniProt P10144); test: Immunohistochemistry and immunofluorescence of human melanoma specimens with hGZP; assay type: binding; conditions: treated responder melanoma samples, IHC and immunofluorescence
# T1 construct: from tissue; host or cells: formalin-fixed paraffin-embedded human melanoma biopsy sections
# Protocol: Immunohistochemistry was performed on formalin-fixed paraffin-embedded sections following standard antigen retrieval in citrate buffer. Granzyme B expression was detected with either an anti-Granzyme B antibody (ab5049, Abcam) or a biotinylated and humanized version of GZP (hGZP, see Example 1A). Bound antibody was detected with either HRP-conjugated goat anti-rabbit antibody and reacted with DAB substrate for IHC staining or AlexaFluor 488 goat anti-rabbit or AlexaFluor 594 goat anti-rabbit antibodies (Life Technologies) for immunofluorescent visualization. Bound peptide was detected with either HRP-conjugated streptavidin (Abcam) followed by reaction with DAB substrate or Oregon green conjugated neutravidin (Life Technologies). […] Fluorescence quantification was performed using ImageJ software (National Institutes of Health, Bethesda, Md.).
# (§1) A cohort of 9 human melanoma biopsy samples obtained from patients treated with anti-PD-1 checkpoint inhibitors (n=6 nivolumab and n=3 pembrolizumab), which were retrospectively correlated with response based on modified RECIST criteria. […] To quantify the degree and magnitude of difference between treated responders and nonresponders, quantitative fluorescent microscopy was performed. […]
# CT26 cells = test: Binding of ^68Ga-NOTA-GP to CT26 cells with or without pre-incubation with granzyme B; assay type: cell-based; conditions: 100 μCi/mL, pre-incubated with granzyme B (60 nM) or vehicle, 30 min
# Protocol: CT26 cells were plated in 96 well plates and grown to 70% confluency. ^68Ga-NOTA-GP was diluted to 100 μCi/mL in 1% BSA plus RPMI buffer and either pre-incubated with granzyme B (60 nM) or vehicle prior to addition to wells. The peptide was incubated with cells for 30 min prior to washing and elution with 2M NaOH.
# CT26 tumors [2] = test: Ex vivo tumor to blood ratio by gamma counter in CT26 tumor bearing mice; conditions: day 14, 1 h post-injection
# Protocol: After confirming the ^68Ga-NOTA-GP bound to purified granzyme B and specifically accumulated in target cells, the in vivo tumor accumulation was investigated in CT26 tumor bearing mice using the same model used to generate the Western blot data from Example 2 (see FIG. 1). On day 14 post-inoculation, mice were injected with […] of ^68Ga-NOTA-GP and mice were sacrificed at 1 h following injection. Tumors and blood were collected from 7 mice that were treated with combination therapy (ant-PD-1 and CTLA-4). The tumors were grouped based on size as either responders (mass<[…]) or non-responders (mass≥[…]) The amount of radioactive ^68Ga-NOTA-GP in both the tumor and blood were quantified using a gamma counter and the adjusted based on mass and the ratio of injected dose per gram of tumor to blood (TBR) was plotted for tumors in each group.
# [3] = Ex vivo bio-distribution at 1 h and 2 h post-injection; assay type: in vivo, mice; conditions: mouse, tumor, iv, 1 mCi, total radioactivity; for tissue uptake at 1 h: 1 h post-injection; for tissue uptake at 2 h: 2 h post-injection
# Protocol: (§2) Following injection with ˜1 mCi of ^68Ga-NOTA-GP (see Example 1) via tail-vein mice were sacrificed at either one-hour or two-hour time-points. Mouse urine, blood, tumor, and vital organs were sampled, and radioactivity assessed on a gamma-counter.
# (§3) Following imaging, mice were sacrificed and tumoral GZB expression quantified by Western blot. […] Tumoral uptake of treated tumors was measured at 1.15% ID/g at 1 h and 1.02% ID/g at 2 h in comparison to 0.70 and 0.55% ID/g in untreated control tumors, as shown in FIG. 7B.
# CT26 tumors [4] = test: as above; assay type: in vivo, mice; conditions: 1 h and 2 h post-injection
# Protocol: as §2, §3
# granzyme B [5] = target: T2, granzyme B (Mus musculus, UniProt P04187); test: Binding of ^68Ga-NOTA-GP to purified granzyme B adsorbed to plates vs BSA; set-up: purchased R&D systems; conditions: 1 h binding, bound tracer counted by gamma counter, 6 replicates
# T2 sequence (P04187 21-247): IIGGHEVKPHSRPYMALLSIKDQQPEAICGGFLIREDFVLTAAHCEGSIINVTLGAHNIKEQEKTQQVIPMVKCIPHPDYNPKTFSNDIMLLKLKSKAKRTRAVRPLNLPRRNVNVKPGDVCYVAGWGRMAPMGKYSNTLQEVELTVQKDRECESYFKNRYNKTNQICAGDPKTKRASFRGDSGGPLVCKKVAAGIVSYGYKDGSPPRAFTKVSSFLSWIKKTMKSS
# Protocol: Granzyme B was adsorbed to plates and the plates were blocked with non-fat milk. The ^68Ga-NOTA-GP was permitted to bind for 1 h, the wells washed, and bound ^68Ga-NOTA-GP recovered by incubation with 2N NaOH and counted by gamma counter. […] The bars in FIG. 4 represent the mean of 6 replicates±SD.
# granzyme B [6] = target: T2, granzyme B; assay type: in vivo, mice; set-up: from tissue; host or cells: CT26 (BALB/C) and MC38 syngeneic tumours in living mice; granzyme B from infiltrating host lymphocytes
# Protocol: For imaging studies, mice were treated with intraperitoneal injection of either vehicle, 200 μg anti-PD-1 murine therapeutic antibody (αPD1), or both 200 μg αPD1 and 100 μg anti-CTLA-4 murine therapeutic antibody (αCTLA-4) on days 3, 6, and 9 following CT-26 tumor inoculation. 1×10^6 BP cells were diluted 1:1 with Matrigel and injected in the right shoulder of female C57BL/6 mice. Once tumors had reached 3-5 mm in diameter, mice were treated with daily oral gavage of vehicle or dabrafenib prepared in aqueous suspension with 0.5% hydroxypropylmethyl cellulose (HPMC) and 0.2% Tween. One day following initiation of BRAF inhibition, mice were additionally randomized to intraperitoneal injection with 200 μg αPD1 as specified. Mice were sacrificed on specified day either for Western blot and immunohistochemistry alone, or following imaging for correlative analysis. Mice were imaged on a GE Triumph PET/CT. Following CT acquisition, PET images were obtained for 15 min in 2 bed positions. Images were constructed using 3D-OSEM (4 iterations, 16 subsets) and corrected for scatter and randoms. The mean standard uptake value (SUVmean) for each tumor was calculated in a 3D region of interest auto-drawn around the tumor using a 30% isocontour threshold. Region of interests were also calculated for left ventricle, liver lung, muscle, and kidney. Images were post-processed using VivoQuant (InviCRO, Boston, Mass.). On day 14 post-inoculation, mice were injected with ˜37 MBq of purified ^68Ga-NOTA-GP intravenously and imaged at 1 h post-injection. […] The mean TBR of treated mice was calculated at 1.69±0.26, whereas the mean TBR of untreated mice was 0.93±0.11, a significant increase (83%, P<0.05) from untreated to treated mice, as shown in FIG. 11. ^68Ga-NOTA-GP uptake was observed across both treated and untreated tumors.
# granzyme B [7] = target: T2, granzyme B; test: Response prediction using granzyme B PET imaging across CT26 and MC38 models; assay type: in vivo, mice; set-up: from tissue; host or cells: CT26 (BALB/C) and MC38 syngeneic tumours in living mice; granzyme B from infiltrating host lymphocytes; conditions: CT26 and MC38, all therapies
# Text: As a measure of the accuracy of granzyme B PET (i.e., GZP PET) imaging-based response prediction across multiple tumor models and therapies described in Examples 9-11, classifications of uptake using TBR thresholds of 1.27 for CT26 tumors and 1.45 for MC38 tumors were utilized. […] This reflects an overall sensitivity and specificity of 93% and 89% respectively for the ability of ^68Ga-GZP PET to predict immunotherapy response.
# human granzyme B [8] = target: T3, human granzyme B (human, UniProt P10144 21-247); test: immunohistochemistry and immunofluorescence on human melanoma sections, compared with anti-granzyme B antibody
# T3 construct: Endogenous protein in tissue sections, not purified; also called granzyme B in human melanoma tissue
# Protocol: Immunohistochemistry was performed on formalin-fixed paraffin-embedded sections following standard antigen retrieval in citrate buffer. Granzyme B expression was detected with either an anti-Granzyme B antibody (ab5049, Abcam) or a biotinylated and humanized version of GZP (hGZP, see Example 1A). Bound antibody was detected with either HRP-conjugated goat anti-rabbit antibody and reacted with DAB substrate for IHC staining or AlexaFluor 488 goat anti-rabbit or AlexaFluor 594 goat anti-rabbit antibodies (Life Technologies) for immunofluorescent visualization.
# Bound peptide was detected with either HRP-conjugated streptavidin (Abcam) followed by reaction with DAB substrate or Oregon green conjugated neutravidin (Life Technologies). […] Fluorescence quantification was performed using ImageJ software (National Institutes of Health, Bethesda, Md.).
# as §1
# [9] = target: Granzyme B (purified, R&D Systems); test: in vitro granzyme B enzyme activity inhibition (cleavage of BOC-Ala-Ala-Asp-SBZL, absorbance at 405 nm)
# T3 sequence (P10144 21-247 limits assumed): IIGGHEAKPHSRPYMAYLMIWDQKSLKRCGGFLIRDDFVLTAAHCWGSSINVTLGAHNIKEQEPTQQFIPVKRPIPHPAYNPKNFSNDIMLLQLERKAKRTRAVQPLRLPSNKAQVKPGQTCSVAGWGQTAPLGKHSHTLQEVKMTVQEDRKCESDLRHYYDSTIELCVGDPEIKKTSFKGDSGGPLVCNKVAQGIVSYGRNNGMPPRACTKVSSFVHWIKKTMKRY
# T1 sequence (P10144 21-247): as the sequence (P10144 21-247 limits assumed) above
molecule,measurement,setting,value
NOTA-beta A-PEG27-G-G-G-I-E-F-D ({NOTA-βAla-PEG27′}-GGGIEFD) [GZPPEG],tumor uptake kinetics,tumor,almost identical tumor uptake kinetics to NOTA-GP
{Biotin-βAla}-GGGIEPD-aldehyde [hGZP],binding to granzyme B in human tissue compared with anti-granzyme B antibody,human granzyme B [1],highly specific binding of hGZP to human granzyme B
"CCC(C)C(NC(=O)CNC(=O)CNC(=O)CNC(=S)Nc1ccc(CC2CN(CC(=O)O)CCN(CC(=O)O)CCN2CC(=O)O)cc1)C(=O)NC(CCC(=O)O)C(=O)NC(Cc1ccccc1)C(=O)NC(C=O)CC(=O)O (stereo not drawn) [^68Ga-NOTA-GP, metal not drawn] (X1-GGGIEFD-aldehyde; configuration not given here)",binding/uptake in CT26 cells,CT26 cells,binds granzyme B and is taken up specifically by cancer cells
same,"tumor to blood ratio (TBR), injected dose per gram, responders","CT26 tumors [2]; combination therapy (anti-PD-1 and CTLA-4) treated mice, responders (mass<0.8 mg)",6.06-13.74
same,"tumor to blood ratio (TBR), injected dose per gram, non-responders","CT26 tumors [2]; combination therapy treated mice, non-responders (mass≥0.8 mg)",0.95-2.48
same,tissue uptake at 1 h,"[3]; treated tumors, read-out: tumoral uptake, treated tumors, 1 h",1.15 %ID/g
same,tissue uptake at 2 h,"[3]; treated tumors, read-out: tumoral uptake, treated tumors, 2 h",1.02 %ID/g
same,tissue uptake at 1 h,"[3]; untreated control tumors, read-out: tumoral uptake, untreated control tumors, 1 h",0.7 %ID/g
same,tissue uptake at 2 h,"[3]; untreated control tumors, read-out: tumoral uptake, untreated control tumors, 2 h",0.55 %ID/g
same,clearance,CT26 tumors [4],rapid renal clearance
same,binding to granzyme B compared to control protein (BSA),granzyme B [5],significantly (P<0.05) higher binding to granzyme B than to the control protein (BSA)
same,correlation of TBR with tumoral GZB expression (Western blot),granzyme B [6]; P<0.001,significant correlation between uptake and GZB expression
same,increase of mean TBR from untreated to treated mice,"granzyme B [6]; mouse, in vivo",83%
same,"mean TBR (tumor to left ventricle) by PET, treated mice","granzyme B [6]; mouse, in vivo",1.69±0.26
same,"mean TBR (tumor to left ventricle) by PET, untreated mice","granzyme B [6]; mouse, in vivo",0.93±0.11
same,overall sensitivity to predict immunotherapy response,granzyme B [7]; 25 of 27 responding mice high-uptake,93%
same,overall specificity to predict immunotherapy response,granzyme B [7]; 34 of 38 non-responding mice low-uptake,89%
NOTA-beta A-G-G-G-T-E-A-A-A-A-S-S-C-F-I-E-F-D-CHO ({NOTA}-[βAla]GGGTEAAAASSCFIEFD-aldehyde; SMILES CC[C@H](C)[C@H](NC(=O)[C@H](Cc1ccccc1)NC(=O)[C@H](CS)NC(=O)[C@H](CO)NC(=O)[C@H](CO)NC(=O)[C@H](C)NC(=O)[C@H](C)NC(=O)[C@H](C)NC(=O)[C@H](C)NC(=O)[C@H](CCC(=O)O)NC(=O)[C@@H](NC(=O)CNC(=O)CNC(=O)CNC(=O)CCNC(=O)CN1CCN(CC(=O)O)CCN(CC(=O)O)CC1)[C@@H](C)O)C(=O)N[C@@H](CCC(=O)O)C(=O)N[C@@H](Cc1ccccc1)C(=O)N[C@H](C=O)CC(=O)O) [GZPSERP],aggregation and liver uptake,tumor,significant aggregation and high liver uptake
same,tumor to background ratios,tumor,much lower tumor to background ratios
B1,binding result,human granzyme B [8],binds
{NOTA}-[βAla]GGIEFD-aldehyde (also: NOTA complexed with nonradioactive gallium) [NOTA-beta-Ala-Gly-Gly-Ile-Glu-Phe-Asp-CHO (nonradioactive gallium-labeled)],Ki,[9],47 nM
